Measured values taken from patent US6489268B1, “Highly selective herbicidal phenoxypropionic acid alkoxycarbonyl anilid compounds and method of preparing the same” (Dongbu Hannong Chemical Co., Ltd., priority 1999, dated 2002).

Legend:
Experiment in all cases: Leaf treatment test (post-emergence spray, % damage)
Format in all cases: in vivo
Settings in all cases: 14 days after treatment, vs untreated control
[1] = system: Echinochloa crus-galli Beauv. var. caudata Kitagawa (Barnyard grass, ECHCG)
Experimental: (§1) Seeds of rice, wheat, barley, corn, cotton, barnyard grass, common sorgum, large crabgrass and fall panicum were seeded at a pot with a surface area of 600 cm. When barnyard grass kept at 20˜30° C. had three leaves, wettable powders prepared by mixing 1 weight part of the active compound, 5 weight part of acetone and 1 weight part of emulsifier and diluting with water was applied directly on the leaves in 2000 l per hectare. The concentration of the spray liquid was so chosen the particular amounts of the active compound desired. 14 days after the treatment, the degree of damage to the plants was rated in % damage in comparison to the development of untreated control. 0% no action (like untreated control) 20% slight effect 70% herbicidal effect 100% total destruction [table]

[2] = system: Oryza sativa L. cv. Dongjin (Rice, ORYSA)
Experimental: as §1

[3] = system: Gossypium (Cotton, GOSHI)
Experimental: as §1

[4] = system: Andropogon sorghum (Common sorgum, SORBI)
Experimental: as §1

[5] = system: Digitaria Sanguinalis (L.) SCOP (Large crabgrass, DIGSA)
Experimental: as §1

[6] = system: Glydne max (L.) MERR (Soy bean, GLXMA)
Experimental: [The procedure below names another organism; the source lists this organism under the same test.] as §1

[7] = system: Triticum aestivum L. (Wheat, TRZAW)
Experimental: as §1

[8] = system: Zea mays L. (Corn, ZEAMX)
Experimental: as §1

[9] = system: Panicum dichotomiflorum Michx (Fall panicum, PANDI)
Experimental: as §1

COC(=O)c1cccc(NC(=O)C(C)Oc2ccc(Oc3nc4ccc(Cl)cc4o3)cc2)c1 (stereo not drawn) [Compound 1]
degree of damage to the plants, ECHCG ([1]; 15 g/ha): 0%
degree of damage to the plants, ECHCG ([1]; 30 g/ha): 80%
degree of damage to the plants, ECHCG ([1]; 60 g/ha): 100%
degree of damage to the plants, ECHCG ([1]; 125 g/ha): 100%
degree of damage to the plants, ECHCG ([1]; 250 g/ha): 100%
degree of damage to the plants, ECHCG ([1]; 500 g/ha): 100%
degree of damage to the plants, ECHCG ([1]; 1000 g/ha): 100%
degree of damage to the plants, ORYSA ([2]; 15 g/ha): 0%
degree of damage to the plants, ORYSA ([2]; 30 g/ha): 0%
degree of damage to the plants, ORYSA ([2]; 60 g/ha): 0%
degree of damage to the plants, ORYSA ([2]; 125 g/ha): 0%
degree of damage to the plants, ORYSA ([2]; 250 g/ha): 10%
degree of damage to the plants, ORYSA ([2]; 500 g/ha): 20%
degree of damage to the plants, ORYSA ([2]; 1000 g/ha): 30%

COC(=O)c1ccc(NC(=O)C(C)Oc2ccc(Oc3nc4ccc(Cl)cc4o3)cc2)cc1 (stereo not drawn) [Compound 4]
degree of damage to the plants, GOSHI ([3]; 0.025 kg/ha): 0%
degree of damage to the plants, GOSHI ([3]; 0.1 kg/ha): 0%
degree of damage to the plants, ECHCG ([1]; 0.025 kg/ha): 100%
degree of damage to the plants, ECHCG ([1]; 0.1 kg/ha): 100%
degree of damage to the plants, SORBI ([4]; 0.025 kg/ha): 70%
degree of damage to the plants, SORBI ([4]; 0.1 kg/ha): 100%
degree of damage to the plants, ORYSA ([2]; 0.025 kg/ha): 0%
degree of damage to the plants, ORYSA ([2]; 0.1 kg/ha): 30%
degree of damage to the plants, DIGSA ([5]; 0.025 kg/ha): 100%
degree of damage to the plants, DIGSA ([5]; 0.1 kg/ha): 100%
degree of damage to the plants, GLXMA ([6]; 0.025 kg/ha): 0%
degree of damage to the plants, GLXMA ([6]; 0.1 kg/ha): 0%
degree of damage to the plants, TRZAW ([7]; 0.025 kg/ha): 0%
degree of damage to the plants, TRZAW ([7]; 0.1 kg/ha): 0%
degree of damage to the plants, ZEAMX ([8]; 0.025 kg/ha): 0%
degree of damage to the plants, ZEAMX ([8]; 0.1 kg/ha): 0%
degree of damage to the plants, PANDI ([9]; 0.025 kg/ha): 80%
degree of damage to the plants, PANDI ([9]; 0.1 kg/ha): 100%

CCOC(=O)c1cccc(N(C)C(=O)C(C)Oc2ccc(Oc3nc4ccc(Cl)cc4o3)cc2)c1 (stereo not drawn) [Compound 3]
degree of damage to the plants, ECHCG ([1]; 15 g/ha): 0%
degree of damage to the plants, ECHCG ([1]; 30 g/ha): 0%
degree of damage to the plants, ECHCG ([1]; 60 g/ha): 20%
degree of damage to the plants, ECHCG ([1]; 125 g/ha): 90%
degree of damage to the plants, ECHCG ([1]; 250 g/ha): 100%
degree of damage to the plants, ECHCG ([1]; 500 g/ha): 100%
degree of damage to the plants, ECHCG ([1]; 1000 g/ha): 100%
degree of damage to the plants, ORYSA ([2]; 15 g/ha): 0%
degree of damage to the plants, ORYSA ([2]; 30 g/ha): 0%
degree of damage to the plants, ORYSA ([2]; 60 g/ha): 0%
degree of damage to the plants, ORYSA ([2]; 125 g/ha): 0%
degree of damage to the plants, ORYSA ([2]; 250 g/ha): 0%
degree of damage to the plants, ORYSA ([2]; 500 g/ha): 0%
degree of damage to the plants, ORYSA ([2]; 1000 g/ha): 0%

CCOC(=O)c1cccc(NC(=O)C(C)Oc2ccc(Oc3nc4ccc(Cl)cc4o3)cc2)c1 (stereo not drawn) [Compound 2]
degree of damage to the plants, GOSHI ([3]; 0.004 kg/ha): 0%
degree of damage to the plants, GOSHI ([3]; 0.016 kg/ha): 0%
degree of damage to the plants, GOSHI ([3]; 0.063 kg/ha): 0%
degree of damage to the plants, GOSHI ([3]; 1 kg/ha): 0%
degree of damage to the plants, GOSHI ([3]; 025 kg/ha): 0%
degree of damage to the plants, ECHCG ([1]; 0.004 kg/ha): 90%
degree of damage to the plants, ECHCG ([1]; 0.016 kg/ha): 100%
degree of damage to the plants, ECHCG ([1]; 0.063 kg/ha): 100%
degree of damage to the plants, ECHCG ([1]; 1 kg/ha): 100%
degree of damage to the plants, ECHCG ([1]; 15 g/ha): 8%
degree of damage to the plants, ECHCG ([1]; 025 kg/ha): 100%
degree of damage to the plants, ECHCG ([1]; 30 g/ha): 100%
degree of damage to the plants, ECHCG ([1]; 60 g/ha): 100%
degree of damage to the plants, ECHCG ([1]; 125 g/ha): 100%
degree of damage to the plants, ECHCG ([1]; 250 g/ha): 100%
degree of damage to the plants, ECHCG ([1]; 500 g/ha): 100%
degree of damage to the plants, ECHCG ([1]; 1000 g/ha): 100%
degree of damage to the plants, SORBI ([4]; 0.004 kg/ha): 40%
degree of damage to the plants, SORBI ([4]; 0.016 kg/ha): 100%
degree of damage to the plants, SORBI ([4]; 0.063 kg/ha): 100%
degree of damage to the plants, SORBI ([4]; 1 kg/ha): 100%
degree of damage to the plants, SORBI ([4]; 025 kg/ha): 100%
degree of damage to the plants, ORYSA ([2]; 0.004 kg/ha): 0%
degree of damage to the plants, ORYSA ([2]; 0.016 kg/ha): 0%
degree of damage to the plants, ORYSA ([2]; 0.063 kg/ha): 0%
degree of damage to the plants, ORYSA ([2]; 1 kg/ha): 40%
degree of damage to the plants, ORYSA ([2]; 15 g/ha): 0%
degree of damage to the plants, ORYSA ([2]; 025 kg/ha): 40%
degree of damage to the plants, ORYSA ([2]; 30 g/ha): 0%
degree of damage to the plants, ORYSA ([2]; 60 g/ha): 0%
degree of damage to the plants, ORYSA ([2]; 125 g/ha): 0%
degree of damage to the plants, ORYSA ([2]; 250 g/ha): 15%
degree of damage to the plants, ORYSA ([2]; 500 g/ha): 35%
degree of damage to the plants, ORYSA ([2]; 1000 g/ha): 45%
degree of damage to the plants, DIGSA ([5]; 0.004 kg/ha): 95%
degree of damage to the plants, DIGSA ([5]; 0.016 kg/ha): 100%
degree of damage to the plants, DIGSA ([5]; 0.063 kg/ha): 100%
degree of damage to the plants, DIGSA ([5]; 1 kg/ha): 100%
degree of damage to the plants, DIGSA ([5]; 025 kg/ha): 100%
degree of damage to the plants, GLXMA ([6]; 0.004 kg/ha): 0%
degree of damage to the plants, GLXMA ([6]; 0.016 kg/ha): 0%
degree of damage to the plants, GLXMA ([6]; 0.063 kg/ha): 0%
degree of damage to the plants, GLXMA ([6]; 1 kg/ha): 0%
degree of damage to the plants, GLXMA ([6]; 025 kg/ha): 0%
degree of damage to the plants, TRZAW ([7]; 0.004 kg/ha): 0%
degree of damage to the plants, TRZAW ([7]; 0.016 kg/ha): 0%
degree of damage to the plants, TRZAW ([7]; 0.063 kg/ha): 0%
degree of damage to the plants, TRZAW ([7]; 1 kg/ha): 40%
degree of damage to the plants, TRZAW ([7]; 025 kg/ha): 20%
degree of damage to the plants, ZEMAX ([8]; 0.004 kg/ha): 0%
degree of damage to the plants, ZEMAX ([8]; 0.016 kg/ha): 0%
degree of damage to the plants, ZEMAX ([8]; 0.063 kg/ha): 20%
degree of damage to the plants, ZEMAX ([8]; 1 kg/ha): 100%
degree of damage to the plants, ZEMAX ([8]; 025 kg/ha): 100%
degree of damage to the plants, PANDI ([9]; 0.004 kg/ha): 95%
degree of damage to the plants, PANDI ([9]; 0.016 kg/ha): 100%
degree of damage to the plants, PANDI ([9]; 0.063 kg/ha): 100%
degree of damage to the plants, PANDI ([9]; 1 kg/ha): 100%
degree of damage to the plants, PANDI ([9]; 025 kg/ha): 100%

CCOC(=O)c1ccc(NC(=O)C(C)Oc2ccc(Oc3nc4ccc(Cl)cc4o3)cc2)cc1 (stereo not drawn) [Compound 5]
degree of damage to the plants, GOSHI ([3]; 0.025 kg/ha): 0%
degree of damage to the plants, GOSHI ([3]; 0.1 kg/ha): 0%
degree of damage to the plants, ECHCG ([1]; 0.025 kg/ha): 95%
degree of damage to the plants, ECHCG ([1]; 0.1 kg/ha): 100%
degree of damage to the plants, SORBI ([4]; 0.025 kg/ha): 95%
degree of damage to the plants, SORBI ([4]; 0.1 kg/ha): 100%
degree of damage to the plants, ORYSA ([2]; 0.025 kg/ha): 0%
degree of damage to the plants, ORYSA ([2]; 0.1 kg/ha): 40%
degree of damage to the plants, DIGSA ([5]; 0.025 kg/ha): 100%
degree of damage to the plants, DIGSA ([5]; 0.1 kg/ha): 100%
degree of damage to the plants, GLXMA ([6]; 0.025 kg/ha): 0%
degree of damage to the plants, GLXMA ([6]; 0.1 kg/ha): 20%
degree of damage to the plants, TRZAW ([7]; 0.025 kg/ha): 0%
degree of damage to the plants, TRZAW ([7]; 0.1 kg/ha): 20%
degree of damage to the plants, ZEAMX ([8]; 0.025 kg/ha): 0%
degree of damage to the plants, ZEAMX ([8]; 0.1 kg/ha): 30%
degree of damage to the plants, PANDI ([9]; 0.025 kg/ha): 95%
degree of damage to the plants, PANDI ([9]; 0.1 kg/ha): 100%
